According to patent US7772425B2, “Vitamin D receptor modulators” (Eli Lilly and Company, priority 2002, dated 2010):
Values joined by “and” are separate entries in the source; they are usually repeats but may differ in a detail not shown here. Equal entries are not always repeated.

Columns and labels:
IL-10 = assay: human IL-10 induction assay in PBMCs; type: cell-based; conditions: Homo sapiens, PBMC, TPA/PHA treated human PBMCs, IL-10 immunoassay of supernatant
Text: The evaluation of the novel compounds of the invention for psoriasis is done using the Keratinocyte Proliferation Assay in combination with other assays that measure inhibition of IL-2 production and stimulation of IL-10 production in peripheral blood mononuclear cells (PBMCs).
6. The IL-10 Induction Assay
This is an in vitro efficacy assay for psoriasis, abscess and adhesion. Psoriasis involves both keratinocytes and immune cells. IL-10 is a unique cytokine because it is anti-inflammatory and immunosuppressive. This assay tells us whether a VDRM is able to function as an agonist in PBMCs (primary blood mononuclear cells) or not. A lower EC50 value is desirable in this assay since a compound with a lower EC50 value will be a better agonist in PBMCs.
(6) Materials and Method for human IL-10 Induction Assay:
Isolation of peripheral blood mononuclear cells (PBMCs):
• A. Collect 50 ml of human blood and dilute with media, RPMI-1640. • B. Prepare sterile tubes with ficol. • C. Add diluted blood to tubes. • D. Centrifuge. • E. Discard the top layer and collect the cells from middle layer. • F. Divide all cells into four tubes and add media. • G. Centrifuge. • H. Aspirate off media and resuspend. • I. Collect all cells • J. Centrifuge. at 1200 rpm for 10 minutes. • K. Resuspend in RPMI-1640 with 2% FBS and count cells Stimulation of PBMC: • L. Prepare TPA in DMSO. • M. Dissolve PHA in water. • N. Plate TPA/PHA treated PBMCs in well plates. • O. Incubate. Treatment: • P. Prepare all compound dilutions in plain RPMI-1640 media. • Q. Add diluted compound. • R. Incubate. Sample Collection and assay: • S. Remove all the cells by centrifugation and assay the supernatant for IL-10 by immunoassay. • 1) T. Perform IL-10 assay using anti-human IL-10 antibody coated beads, as described by the manufacturer (Linco Research Inc., St. Charles, Mo.).

female DBF mice = assay: Mouse hypercalcemia assay; type: in vivo; conditions: orally via gavage for 6 days; serum ionized calcium 6 hours after last dosing
Text: 4. The Mouse Hypercalcemia Assay
(4) Materials and Method for The Mouse Hypercalcemia Assay: […]

[1] = system: KERtr cells (Human skin keratinocyte); assay: Keratinocyte proliferation assay; type: cell-based; conditions: 72 hr, BrdU incorporation, read-out: Kera. Prolif. IC50
rat osteocalcin promoter = assay: OCN (osteocalcin) promoter assay in RG-15 (ROS 17/2.8) cells; type: cell-based; conditions: 48 hr treatment, luciferase
Outline: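 Rat osteoblast-like RG-15 (ROS 17/2.8) cells stably carrying a luciferase reporter driven by the osteocalcin promoter, treated with compounds in DMSO (0.01% v/v final) in medium with 2% FBS. After 48 hr at 37 °C, cells were lysed and luciferase activity measured.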

## CCC(CC)(c1ccc(OC(C)C(O)C(C)(C)C)c(C)c1)c1ccc(C(=O)N[C@H](C)C(=O)O)c(C)c1 (stereo partly shown) [Ex. 46, (D)-2-(4-{1-ethyl-1-[4-(2-hydroxy-1,3,3-trimethyl-butoxy)-3-methyl-phenyl]-propyl}-2-methyl-benzoylamino)-propionic acid]
IL-10
  IC50: 33 nM
Female DBF mice
  Mouse Hypercal: 3000 µg/kg/day
[1]
  IC50: 21 nM
Rat osteocalcin promoter
  EC50: 2 nM and 3 nM
